PubChem BioAssay AID256 (DTP/NCI, 2004)
Several values for one entry are separate records, joined by “and”; a condition that tells them apart may be missing. Identical values can stand only once. Toxic doses and inconclusive results are not listed. How the source made its calls: active means survival T/C of 150% or more; inactive means T/C below 125% in these data.

Test system: CD2F1 mice, L1210 leukemia ip, survival T/C
Test: NCI In Vivo Anticancer Drug Screen. Data for tumor model L1210 Leukemia (intraperitoneal) in CD2F1 (CDF1) mice
Conditions: higher = longer survival
How it was run: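 Ratio T/C, where T is the treated-group value and C the vehicle-dosed control value, from mice implanted with a transplantable tumor.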

[1] = endpoint: mean survival time, dose: 12.5 mg/kg/injection, schedule: Q04DX002 (ip), vehicle: saline with Tween-80
[2] = endpoint: mean survival time, dose: 100.0 mg/kg/injection, schedule: Q04DX003 (ip), vehicle: saline
[3] = endpoint: mean survival time, dose: 200.0 mg/kg/injection, schedule: Q04DX003 (ip), vehicle: saline
[4] = endpoint: mean survival time, dose: 400.0 mg/kg/injection, schedule: Q04DX003 (ip), vehicle: saline
[5] = endpoint: mean survival time, dose: 100.0 mg/kg/injection, schedule: Q01DX001 (ip), vehicle: saline with Tween-80
[6] = endpoint: mean survival time, dose: 200.0 mg/kg/injection, schedule: Q01DX001 (ip), vehicle: saline with Tween-80
[7] = endpoint: mean survival time, dose: 400.0 mg/kg/injection, schedule: Q01DX001 (ip), vehicle: saline with Tween-80
[8] = endpoint: mean survival time, dose: 100.0 mg/kg/injection, schedule: Q01DX009 (ip), vehicle: saline with Tween-80
[9] = endpoint: mean survival time, dose: 100.0 mg/kg/injection, schedule: Q04DX003 (ip), vehicle: saline with Tween-80
[10] = endpoint: mean survival time, dose: 25.0 mg/kg/injection, schedule: Q04DX003 (ip), vehicle: saline
[11] = endpoint: mean survival time, dose: 100.0 mg/kg/injection, schedule: Q01DX001 (ip), vehicle: saline
[12] = endpoint: mean survival time, dose: 200.0 mg/kg/injection, schedule: Q01DX001 (ip), vehicle: saline
[13] = endpoint: mean survival time, dose: 400.0 mg/kg/injection, schedule: Q01DX001 (ip), vehicle: saline

Measured: T/C

CCCCCCC(=O)CCCCCC/C=C/CC(O)C(O)C(N)(CO)C(=O)O (stereo unspecified)
inactive: [1] 86 % of control

CC1CCCC/C1=N/O (stereo unspecified)
inactive: [2] 101 % of control | [3] 101 % of control | [4] 101 % of control

O=C(Oc1ccccc1)C(O)CO (stereo unspecified)
inactive: [5] 104 % of control | [6] 101 % of control | [7] 97 % of control

Cc1cc2sccc2cn1
inactive: endpoint: mean survival time, dose: 25.0 mg/kg/injection, schedule: Q01DX009 (ip), vehicle: saline with Tween-80 100 % of control | endpoint: mean survival time, dose: 50.0 mg/kg/injection, schedule: Q01DX009 (ip), vehicle: saline with Tween-80 98 % of control | [8] 98 % of control | [9] 90 % of control

Cc1nc2ccc(N)cc2[nH]1
inactive: endpoint: mean survival time, dose: 50.0 mg/kg/injection, schedule: Q01DX009 (ip), vehicle: saline 95 % of control | endpoint: mean survival time, dose: 100.0 mg/kg/injection, schedule: Q01DX009 (ip), vehicle: saline 113 % of control | endpoint: mean survival time, dose: 200.0 mg/kg/injection, schedule: Q01DX009 (ip), vehicle: saline 95 % of control

O=C(Cl)C12CC3CC(CC(C3)C1)C2
inactive: endpoint: mean survival time, dose: 12.5 mg/kg/injection, schedule: Q01DX009 (ip), vehicle: other 94 % of control | endpoint: mean survival time, dose: 25.0 mg/kg/injection, schedule: Q01DX009 (ip), vehicle: other 94 % of control | endpoint: mean survival time, dose: 50.0 mg/kg/injection, schedule: Q01DX009 (ip), vehicle: other 91 % of control | endpoint: mean survival time, dose: 100.0 mg/kg/injection, schedule: Q01DX009 (ip), vehicle: other 91 % of control

COC12C(COC(N)=O)C3=C(C(=O)C(C)=C(N4CC4C#N)C3=O)N1CC1NC12 (stereo unspecified)
inactive: endpoint: median survival time, dose: 0.19 mg/kg/injection, schedule: Q01DX001 (ip), vehicle: water 120 % of control | endpoint: median survival time, dose: 0.38 mg/kg/injection, schedule: Q01DX001 (ip), vehicle: water 121 % of control | endpoint: median survival time, dose: 0.75 mg/kg/injection, schedule: Q01DX001 (ip), vehicle: water 123 % of control | endpoint: median survival time, dose: 1.5 mg/kg/injection, schedule: Q01DX001 (ip), vehicle: water 121 % of control

CC(C)(C)OC(=O)NC(CSC(c1ccccc1)(c1ccccc1)c1ccccc1)C(=O)O (stereo unspecified)
inactive: endpoint: mean survival time, dose: 75.0 mg/kg/injection, schedule: Q01DX001 (ip), vehicle: saline 93 % of control

CN(N)C=O
inactive: [10] 98 % of control | endpoint: mean survival time, dose: 50.0 mg/kg/injection, schedule: Q04DX003 (ip), vehicle: saline 94 % of control | [2] 102 % of control

CC(=O)CC(C)=O.CC(=O)CC(C)=O.[Pd]
inactive: endpoint: mean survival time, dose: 6.25 mg/kg/injection, schedule: Q04DX002 (ip), vehicle: saline with Tween-80 96 % of control | [1] 87 % of control

COc1nccnc1NS(=O)(=O)c1ccc(N)cc1
inactive: [2] 98 % of control | [3] 100 % of control | [4] 104 % of control

Nc1nc(N)c2nc(-c3ccccc3Cl)c(-c3ccccc3Cl)nc2n1
inactive: endpoint: mean survival time, dose: 25.0 mg/kg/injection, schedule: Q04DX002 (ip), vehicle: Klucel (hydroxypropylcellulose) (HPC) 91 % of control | endpoint: mean survival time, dose: 50.0 mg/kg/injection, schedule: Q04DX002 (ip), vehicle: Klucel (hydroxypropylcellulose) (HPC) 98 % of control | endpoint: mean survival time, dose: 100.0 mg/kg/injection, schedule: Q04DX002 (ip), vehicle: Klucel (hydroxypropylcellulose) (HPC) 95 % of control

[NH-]CC[NH-].[NH-]CC[NH-].[NH-]CC[NH-].[Ni]
inactive: endpoint: mean survival time, dose: 6.25 mg/kg/injection, schedule: Q01DX009 (ip), vehicle: saline 103 % of control | endpoint: mean survival time, dose: 6.25 mg/kg/injection, schedule: Q04DX003 (ip), vehicle: saline 97 % of control | endpoint: mean survival time, dose: 12.5 mg/kg/injection, schedule: Q01DX009 (ip), vehicle: saline 101 % of control | endpoint: mean survival time, dose: 12.5 mg/kg/injection, schedule: Q04DX003 (ip), vehicle: saline 93 % of control | endpoint: mean survival time, dose: 25.0 mg/kg/injection, schedule: Q01DX009 (ip), vehicle: saline 92 % of control | [10] 106 % of control

C=CCCCCCCCCC(=O)NCc1ccccn1
inactive: [5] 93 % of control | [6] 102 % of control | [7] 91 % of control

Cc1cc(S(=O)(=O)F)cc(Cl)c1S
inactive: endpoint: mean survival time, dose: 100.0 mg/kg/injection, schedule: Q04DX002 (ip), vehicle: saline with Tween-80 102 % of control

CCn1cnccc1=O
inactive: endpoint: mean survival time, dose: 100.0 mg/kg/injection, schedule: Q04DX002 (ip), vehicle: saline 92 % of control | endpoint: mean survival time, dose: 200.0 mg/kg/injection, schedule: Q04DX002 (ip), vehicle: saline 109 % of control | endpoint: mean survival time, dose: 300.0 mg/kg/injection, schedule: Q04DX002 (ip), vehicle: saline 115 % of control | endpoint: mean survival time, dose: 450.0 mg/kg/injection, schedule: Q04DX002 (ip), vehicle: saline 117 % of control

CC(=O)NC1Cn2c3c(c(COC(N)=O)c2C1O)C(=O)C(Nc1ccccc1)=C(C)C3=O (stereo unspecified)
inactive: endpoint: mean survival time, dose: 2.08 mg/kg/injection, schedule: Q01DX001 (ip), vehicle: carboxymethylcellulose (CMC) 86 % of control | endpoint: mean survival time, dose: 3.1 mg/kg/injection, schedule: Q01DX001 (ip), vehicle: carboxymethylcellulose (CMC) 98 % of control | endpoint: mean survival time, dose: 4.7 mg/kg/injection, schedule: Q01DX001 (ip), vehicle: carboxymethylcellulose (CMC) 93 % of control

O=C(NC(Cc1c[nH]c2ccccc12)C(=O)O)c1ccccc1 (stereo unspecified)
inactive: [8] 108 % of control | [9] 109 % of control | endpoint: mean survival time, dose: 200.0 mg/kg/injection, schedule: Q01DX009 (ip), vehicle: saline with Tween-80 100 % of control | endpoint: mean survival time, dose: 200.0 mg/kg/injection, schedule: Q04DX003 (ip), vehicle: saline with Tween-80 98 % of control | endpoint: mean survival time, dose: 400.0 mg/kg/injection, schedule: Q01DX009 (ip), vehicle: saline with Tween-80 104 % of control | endpoint: mean survival time, dose: 400.0 mg/kg/injection, schedule: Q04DX003 (ip), vehicle: saline with Tween-80 103 % of control | endpoint: mean survival time, dose: 600.0 mg/kg/injection, schedule: Q01DX009 (ip), vehicle: saline with Tween-80 108 % of control

Clc1ccc2c(CBr)ccnc2c1
inactive: endpoint: mean survival time, dose: 50.0 mg/kg/injection, schedule: Q04DX003 (ip), vehicle: other 110 % of control | endpoint: mean survival time, dose: 100.0 mg/kg/injection, schedule: Q04DX003 (ip), vehicle: other 112 % of control

CCCN(CCC)S(=O)(=O)c1ccc(NC(=O)OC(c2ccccc2)c2ccccc2)cc1
inactive: [11] 104 % of control | [12] 95 % of control | [13] 93 % of control

O=[N+]([O-])c1ccc(N/N=C/c2ccccn2)cc1
inactive: endpoint: mean survival time, dose: 100.0 mg/kg/injection, schedule: Q04DX003 (ip), vehicle: Klucel (hydroxypropylcellulose) (HPC) 96 % of control | endpoint: mean survival time, dose: 200.0 mg/kg/injection, schedule: Q04DX003 (ip), vehicle: Klucel (hydroxypropylcellulose) (HPC) 89 % of control | endpoint: mean survival time, dose: 400.0 mg/kg/injection, schedule: Q04DX003 (ip), vehicle: Klucel (hydroxypropylcellulose) (HPC) 94 % of control

CC(=O)CCCN(CCO)CCO
inactive: [11] 103 % of control | [12] 93 % of control | [13] 101 % of control

[O]=[Sb]([c]1ccccc1)([c]1ccccc1)[c]1ccccc1
inactive: [9] 101 % of control

CCCCCCCC/C=C/CCCCCCCC(=O)NCCCCCCNC(=O)CCCCCCC/C=C/CCCCCCCC
inactive: endpoint: mean survival time, dose: 100.0 mg/kg/injection, schedule: Q01DX001 (ip), vehicle: other 94 % of control | endpoint: mean survival time, dose: 200.0 mg/kg/injection, schedule: Q01DX001 (ip), vehicle: other 97 % of control | endpoint: mean survival time, dose: 400.0 mg/kg/injection, schedule: Q01DX001 (ip), vehicle: other 102 % of control

[Cl][Fe]([Cl])([Cl])[Cl].c1ccc(-c2cc(-c3ccccc3)[o+]c(-c3ccccc3)c2)cc1
inactive: endpoint: mean survival time, dose: 25.0 mg/kg/injection, schedule: Q04DX003 (ip), vehicle: saline with Tween-80 87 % of control | endpoint: mean survival time, dose: 50.0 mg/kg/injection, schedule: Q04DX003 (ip), vehicle: saline with Tween-80 87 % of control | [9] 86 % of control and 91 % of control
